Measured values as given in patent US20150057443A1, “Cycloalkyl Amine Compounds” (Prexa Pharmaceuticals, Inc., priority 2013, published 2015).
Read-outs that look alike come from different tables or passages of the source.

Legend:
[1] = biological target: T1, human recombinant SERT (Homo sapiens, UniProt P31645); test: SERT radioligand binding assay (scintillation proximity, [3H]citalopram)
T1 construct: membranes)
Protocol: (§1) Affinity of the compounds for monoamine transporters was determined by in vitro radioligand binding assays using cell membrane preparations derived from HEK293 cell lines stably expressing human recombinant DAT, NET or SERT receptor (Suven Life Sciences, Hyderabad, India).
(§2) Stable DAT cell lines were generated following procedures described in Eshelman et al., Molecular Pharmacology 45, 312-316; 1994. Stable NET cell lines were generated following procedures described in Pacholczyk et al., Nature 350, 350-354, 1991 and Galli et al., Journal Exp. Biol. 198, 2197-2212, 1995. Stable SERT cell lines were generated following procedures described in Ramamoorthy et al., Proc Natl Acad Sci USA 90, 2542-246, 1993.
(§3) Cell membranes were obtained from the above-referenced cell lines by manually homogenizing previously frozen cell pellets in Tris-HCl buffer and serially centrifugating and re-extracting the preparations according procedures described in Subbu et al., Journal Pharmacol ExpTher 327, 982-990, 2008.
(§4) A scintillation proximity assay was used to measure receptor binding. Homogenized membrane preparations (final protein concentration 8-15 ug/well) were pre-incubated with WGA PVT SPA beads (0.5 mg/well) for 5 minutes. Binding was initiated by adding high affinity ligands and test compounds (0.1 nM to 10 μM) or reference/positive control ligands to the membrane-bead complex. Plates were incubated for three hours and raw data counts recorded using a liquid scintillation counter (MicroBetaTriLux Counter, Perkin Elmer). Inhibition constants (Ki) were calculated using GraphPad Prism software (version 4.0).
SERT receptor binding was determined using procedures described in Owens et al., The Journal of Pharmacology and Experimental Therapeutics 283:1305-1322, 1997. A mixture of [3H]citalopram (N-methyl-[3H]citalopram, Perkin Elmer) and bead-membrane complex was added to wells containing test compound. Non-specific binding was determined using wells containing venlafaxine hydrochloride (100 uM, Sigma). Total radioligand was determined using assay buffer containing 1% DMSO in the presence of [3H]citalopram. SERT Ki values were calculated using GraphPad Prism software (version 4.0).

[2] = biological target: T2, human recombinant NET (Homo sapiens, UniProt P23975); test: NET radioligand binding assay (scintillation proximity, [3H]nisoxetine)
T2 construct: membranes)
Protocol: as §1, §2, §3, §4
NET receptor binding was determined using procedures described in Mason et al., The Journal of Pharmacology and Experimental Therapeutics 323:720-729, 2007; and Eshleman et al., The Journal of Pharmacology and Experimental Therapeutics289:877-885, 1999. A mixture of [3H]nisoxetine hydrochloride (N-methyl-[3H]nisoxetine, Perkin Elmer) and bead-membrane complex was added to wells containing test compound. Wells containing unlabeled nisoxetine (100 uM, Sigma) were used to define non-specific NET binding. Total radioligand was defined using assay buffer containing 1% DMSO in the presence of [3H]nisoxetine. NET Ki values were calculated using GraphPad Prism software (version 4.0).

[3] = biological target: human recombinant DAT (Homo sapiens, UniProt Q01959); test: DAT radioligand binding assay (scintillation proximity, [3H]WIN-35428)
Protocol: as §1, §2, §3, §4
DAT receptor binding was determined using procedures described in Skolnick et al., European Journal of Pharmacology, 461(2-3):99-104, 2003; and Eshleman et al., The Journal of Pharmacology and Experimental Therapeutics 289:877-885, 1999. A mixture of [3H]WIN-35428 (N-methyl 3H-WIN-35428, Perkin Elmer) and bead-membrane complex was added to wells containing test compound. Wells containing nomifensine maleate ([…], Sigma) were used to define non-specific […] binding. Total radioligand was defined by assay buffer containing 1% DMSO in the presence of [3H]WIN-35428. DAT Ki values were calculated using GraphPad Prism software (version 4.0).

[4] = HEK293 cell membranes expressing human recombinant SERT, [3H]citalopram, SPA, read-out: SERT Ki
[5] = HEK293 cell membranes expressing human recombinant NET, [3H]nisoxetine, SPA, read-out: NET Ki
[6] = HEK293 cell membranes expressing human recombinant DAT, [3H]WIN-35428, SPA, read-out: DAT Ki

T2 sequence (P23975 whole entry): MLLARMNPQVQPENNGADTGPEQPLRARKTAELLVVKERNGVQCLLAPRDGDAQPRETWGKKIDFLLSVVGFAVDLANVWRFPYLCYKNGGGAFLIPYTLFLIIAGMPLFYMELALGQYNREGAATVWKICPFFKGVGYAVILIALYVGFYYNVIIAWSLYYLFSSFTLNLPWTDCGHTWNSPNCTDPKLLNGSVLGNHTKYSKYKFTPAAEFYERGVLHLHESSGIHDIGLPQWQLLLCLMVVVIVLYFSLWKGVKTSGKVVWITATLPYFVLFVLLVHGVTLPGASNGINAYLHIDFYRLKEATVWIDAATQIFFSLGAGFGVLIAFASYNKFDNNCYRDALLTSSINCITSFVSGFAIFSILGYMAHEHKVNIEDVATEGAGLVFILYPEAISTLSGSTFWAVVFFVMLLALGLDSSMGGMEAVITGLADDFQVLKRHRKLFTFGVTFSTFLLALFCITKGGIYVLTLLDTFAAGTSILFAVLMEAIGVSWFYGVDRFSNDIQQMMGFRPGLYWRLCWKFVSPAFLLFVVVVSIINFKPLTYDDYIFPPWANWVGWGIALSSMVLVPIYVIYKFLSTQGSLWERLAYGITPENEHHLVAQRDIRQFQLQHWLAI
T1 sequence (P31645 whole entry): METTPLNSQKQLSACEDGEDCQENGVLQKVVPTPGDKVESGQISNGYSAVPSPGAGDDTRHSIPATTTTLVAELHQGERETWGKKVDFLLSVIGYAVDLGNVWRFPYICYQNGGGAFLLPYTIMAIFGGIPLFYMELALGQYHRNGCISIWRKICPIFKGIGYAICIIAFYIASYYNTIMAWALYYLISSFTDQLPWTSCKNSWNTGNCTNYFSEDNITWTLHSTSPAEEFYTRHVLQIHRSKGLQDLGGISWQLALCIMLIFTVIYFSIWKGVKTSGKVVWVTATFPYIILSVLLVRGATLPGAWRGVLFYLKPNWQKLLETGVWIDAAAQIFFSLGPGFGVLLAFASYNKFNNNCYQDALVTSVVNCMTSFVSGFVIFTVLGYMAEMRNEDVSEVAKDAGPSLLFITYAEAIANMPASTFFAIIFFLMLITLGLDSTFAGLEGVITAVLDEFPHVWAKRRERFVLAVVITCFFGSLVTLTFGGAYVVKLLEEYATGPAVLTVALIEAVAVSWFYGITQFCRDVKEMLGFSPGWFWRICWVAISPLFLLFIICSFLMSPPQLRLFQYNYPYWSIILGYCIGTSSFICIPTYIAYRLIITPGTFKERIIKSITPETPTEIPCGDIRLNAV
human recombinant DAT, sequence (Q01959 whole entry): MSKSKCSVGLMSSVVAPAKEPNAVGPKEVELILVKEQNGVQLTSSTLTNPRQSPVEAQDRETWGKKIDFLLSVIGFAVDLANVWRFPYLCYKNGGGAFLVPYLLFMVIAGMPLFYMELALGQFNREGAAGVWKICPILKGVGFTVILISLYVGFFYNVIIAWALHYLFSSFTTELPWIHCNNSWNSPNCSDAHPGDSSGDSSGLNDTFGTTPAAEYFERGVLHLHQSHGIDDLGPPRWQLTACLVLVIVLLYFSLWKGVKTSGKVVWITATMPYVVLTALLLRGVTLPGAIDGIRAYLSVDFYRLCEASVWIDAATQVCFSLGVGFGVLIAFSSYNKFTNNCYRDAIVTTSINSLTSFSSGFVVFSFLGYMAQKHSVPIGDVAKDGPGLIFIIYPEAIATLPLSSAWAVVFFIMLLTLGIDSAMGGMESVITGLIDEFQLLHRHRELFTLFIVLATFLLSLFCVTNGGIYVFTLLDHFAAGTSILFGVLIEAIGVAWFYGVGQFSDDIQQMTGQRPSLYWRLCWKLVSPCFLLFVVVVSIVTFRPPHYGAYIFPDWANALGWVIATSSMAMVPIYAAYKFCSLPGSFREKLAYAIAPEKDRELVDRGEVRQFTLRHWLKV

| Compound | Ki [1, 4] [nM] | Ki [2, 5] [nM] | Ki [3] [nM] | Ki [1] [nM] | Ki [2] [nM] | Ki [3, 6] [nM] |
| --- | --- | --- | --- | --- | --- | --- |
| OC(CN1CCC(F)(F)CC1)C1(c2ccc(Cl)c(Cl)c2)CCC1 (stereo not drawn) [Compound 24, 1-{2-[1-(3,4-Dichlorophenyl)cyclobutyl]-2-hydroxyethyl}-4,4-difluoropiperidin-1-ium chloride] | 101 to 500 | > 500 | < 10 | – | – | – |
| O=C(CN1CCCCC1)C1(c2ccc(Cl)cc2)CCC1 [Compound 66] | – | – | – | > 500 | > 500 | > 500 |
| O=C(CN1CCCCC1)C1(c2ccccc2)CCC1 [Compound 68, 1-[2-oxo-2-(1-phenylcyclobutyl)ethyl]piperidin-1-ium chloride] | > 500 | > 500 | > 500 | – | – | – |
| OC(CN1CCCC1)C1(c2ccc(Cl)c(Cl)c2)CCC1 (stereo not drawn) [Compound 17, 1-{2-[1-(3,4-Dichlorophenyl)cyclobutyl]-2-hydroxyethyl}pyrrolidin-1-ium chloride] | > 500 | 101 to 500 | 11 to 100 | – | – | – |
| CC1(NCC(O)C2(c3ccc(Cl)c(Cl)c3)CCC2)CC1 (stereo not drawn) [Compound 34, N-{2-[1-(3,4-Dichlorophenyl)cyclobutyl]-2-hydroxyethyl}-1-methylcyclopropan-1-aminium chloride] | 101 to 500 | 11 to 100 | 11 to 100 | – | – | – |
| N#CC1CCCN(CC(O)C2(c3ccc(Cl)c(Cl)c3)CCC2)C1 (stereo not drawn) [Compound 32, 1-{2-[1-(3,4-dichlorophenyl)cyclobutyl]-2-hydroxyethyl}piperidine-3-carbonitrile] | 11 to 100 | 101 to 500 | < 10 | – | – | – |
| COC(CN1CCCCC1)C1(c2ccc(Cl)c(Cl)c2)CCC1 (stereo not drawn) [Compound 59, 1-{2-[1-(3,4-dichlorophenyl)cyclobutyl]-2-methoxyethyl}piperidin-1-ium chloride] | > 500 | > 500 | > 500 | – | – | – |
| CCCN(CC)CC(O)C1(c2ccc(Cl)c(Cl)c2)CCC1 (stereo not drawn) [Compound 48, {2-[1-(3,4-Dichlorophenyl)cyclobutyl]-2-hydroxyethyl}(ethyl)propylazanium chloride] | 101 to 500 | 11 to 100 | 11 to 100 | – | – | – |
| OC(CN1CCCCC1)C1(c2ccc(Cl)cc2)CCC1 (stereo not drawn) [Compound 6, 1-{2-[1-(4-Chlorophenyl)cyclobutyl]-2-hydroxyethyl}piperidin-1-ium chloride] | > 500 | > 500 | > 500 | – | – | – |
| Clc1cccc(C2(CN3CCCCC3)CCC2)c1 [Compound 2] | > 500 | > 500 | > 500 | – | – | – |
| OC(CN1CCCCC1)C1(c2ccccc2)CCC1 (stereo not drawn) [Compound 5, 1-[2-hydroxy-2-(1-phenylcyclobutyl)ethyl]piperidin-1-ium chloride] | > 500 | > 500 | > 500 | – | – | – |
| O[C@@H](CN1CCCCC1)C1(c2ccc(Cl)c(Cl)c2)CCC1 [Compound 14, 1-[(2R)-2-[1-(3,4-dichlorophenyl)cyclobutyl]-2-hydroxyethyl]piperidin-1-ium chloride] | > 500 | 101 to 500 | 11 to 100 | – | – | – |
| CCN(CC(O)C1(c2ccc(Cl)c(Cl)c2)CCC1)C(C)C (stereo not drawn) [Compound 47, {2-[1-(3,4-Dichlorophenyl)cyclobutyl]-2-hydroxyethyl}(ethyl)(propan-2-yl)azanium chloride] | 101 to 500 | 11 to 100 | 11 to 100 | – | – | – |
| c1ccc(C2(CN3CCCCC3)CCC2)cc1 [Compound 4, 1-[(1-phenylcyclobutyl)methyl]piperidin-1-ium chloride] | > 500 | > 500 | > 500 | – | – | – |
| Clc1ccc(C2(CN3CCCCC3)CCC2)cc1 [Compound 1] | > 500 | > 500 | 101 to 500 | – | – | – |
| O=C(CN1CCCCC1)C1(c2ccc(Cl)c(Cl)c2)CCCC1 [Compound 61, 1-{2-[1-(3,4-dichlorophenyl)cyclopentyl]-2-oxoethyl}piperidin-1-ium chloride] | > 500 | > 500 | 11 to 100 | – | – | – |
| O=C(CN1CCCCC1)C1(c2ccc(Cl)c(Cl)c2)CCC1 [Compound 67] | 101 to 500 | > 500 | 11 to 100 | – | – | – |
| CC(CF)NCC(O)C1(c2ccc(Cl)c(Cl)c2)CCC1 (stereo not drawn) [Compound 29, {2-[1-(3,4-dichlorophenyl)cyclobutyl]-2-hydroxyethyl}(1-fluoropropan-2-yl)azanium chloride] | > 500 | 101 to 500 | 11 to 100 | – | – | – |
| OC(CN1CCCCC1)C1(c2cccc(Cl)c2)CCC1 (stereo not drawn) [Compound 12, 1-{2-[1-(3-Chlorophenyl)cyclobutyl]-2-hydroxyethyl}piperidin-1-ium chloride] | > 500 | > 500 | > 500 | – | – | – |
| OC(CN1CCCCC1)C1(c2ccc(Cl)c(Cl)c2)CCCC1 (stereo not drawn) [Compound 60, 1-{2-[1-(3,4-dichlorophenyl)cyclopentyl]-2-hydroxyethyl}piperidin-1-ium chloride] | 101 to 500 | 101 to 500 | 11 to 100 | – | – | – |
| OC(CN1CC2CCC1C2)C1(c2ccc(Cl)c(Cl)c2)CCC1 (stereo not drawn) [Compound 25, 2-{2-[1-(3,4-Dichlorophenyl)cyclobutyl]-2-hydroxyethyl}-2-azabicyclo[2.2.1]heptan-2-ium chloride] | 101 to 500 | 11 to 100 | 11 to 100 | – | – | – |
| CC1(C)COCCN1CC(O)C1(c2ccc(Cl)c(Cl)c2)CCC1 (stereo not drawn) [Compound 31, 4-{2-[1-(3,4-dichlorophenyl)cyclobutyl]-2-hydroxyethyl}-3,3-dimethylmorpholin-4-ium chloride] | 11 to 100 | 11 to 100 | < 10 | – | – | – |
| CC(O)(CN1CCCCC1)C1(c2ccc(Cl)c(Cl)c2)CCC1 (stereo not drawn) [Compound 71, 1-{2-[1-(3,4-dichlorophenyl)cyclobutyl]-2-hydroxypropyl}piperidin-1-ium chloride] | > 500 | 101 to 500 | 11 to 100 | – | – | – |
| OC(CN1CCOCC1)C1(c2ccc(Cl)c(Cl)c2)CCC1 (stereo not drawn) [Compound 30, 4-{2-[1-(3,4-Dichlorophenyl)cyclobutyl]-2-hydroxyethyl}morpholin-4-ium chloride] | > 500 | > 500 | 11 to 100 | – | – | – |
| OC(CNC1CC1)C1(c2ccc(Cl)c(Cl)c2)CCC1 (stereo not drawn) [Compound 35, N-{2-[1-(3,4-Dichlorophenyl)cyclobutyl]-2-hydroxyethyl}cyclopropanaminium chloride] | > 500 | 101 to 500 | 11 to 100 | – | – | – |
| 1-{2-[1-(3-Chlorophenyl)cyclobutyl]-2-hydroxyethyl}-3,3-dimethylpiperidin-1-ium chloride [Compound 11] | > 500 | > 500 | – | – | – | > 500 |
| OC(CN1CCC(F)CC1)C1(c2ccc(Cl)c(Cl)c2)CCC1 (stereo not drawn) [Compound 23, 1-{2-[1-(3,4-Dichlorophenyl)cyclobutyl]-2-hydroxyethyl}-4-fluoropiperidin-1-ium chloride] | > 500 | 101 to 500 | < 10 | – | – | – |
| OC(CN1CCCCCC1)C1(c2ccc(Cl)c(Cl)c2)CCC1 (stereo not drawn) [Compound 16, 1-{2-[1-(3,4-Dichlorophenyl)cyclobutyl]-2-hydroxyethyl}azepan-1-ium chloride] | > 500 | 101 to 500 | 11 to 100 | – | – | – |
| OC(CN1CC2CC1CO2)C1(c2ccc(Cl)c(Cl)c2)CCC1 (stereo not drawn) [Compound 27, 5-{2-[1-(3,4-Dichlorophenyl)cyclobutyl]-2-hydroxyethyl}-2-oxa-5-azabicyclo[2.2.1]heptan-5-ium chloride] | > 500 | 101 to 500 | 11 to 100 | – | – | – |
